The structures appear in SMILES notation. pEC50: −log10 of the molar value.

The subject of the first experiment is RSV-A2-GFP. Description: RSV-A2-GFP viral replication assay. Format: cell-based, Human Respiratory Syncytial Virus. Conditions: human respiratory syncytial virus, Calu-1, 96 h, read-out: RSV EC50, Calu-1 cells, RSV-A2-GFP MOI=1.2, 96 hrs, GFP-expressing cells counted. An excerpt: GFP sequence was derived from pJTI™ R4 Dest CMV N-EmGFP pA Vector (Invitrogen) and was cloned into the intergenic sequence between wild-type RSV-A2 P and M genes using standard recombineering techniques. Recombinant RSV-A2-GFP was propagated in Hep2 cells (human cells contains HeLa marker chromosomes and were derived via HeLa contamination, ATCC CCL-23) with infection Multiplicity of Infection (MOI) of 0.1. Virus was harvested 3 days after infection by collecting all culture material and freeze-thaw the viral culture in liquid nitrogen for at least 5 times. To generating virus working stocks, thaw frozen samples in 37° C. water bath then centrifuge at 218 g for 15 min at 4° C. Add 1/10 of 10×SPG (Biological Industries 06-3061-01-5A), mix, aliquot supernatant, and quick-freeze in liquid nitrogen then transfer to −80° C. freezer for storage. Virus titer was determined by automated plaque assay in HEp-2 cells following methods described previously (Wen Z. et al.; J Virol Methods. 2019 January; 263:88-95).
Calu-1 cells (human lung epidermoid carcinoma, ATCC HTB-54) assay ready freezedown (ARF generation described separately) were used in assays. Compound plates were prepared by dispensing compounds dissolved in DMSO into wells of 384 well coming 3985 polystyrene flat clear bottom optical imaging microplates (202.5 nL/well) using an ECHO acoustic dispenser. Each compound was tested in a 10-point serial 3-fold dilution (typical final concentrations: 403 nM-0.02 nM and 40.3 nM-0.002 nM). […] To set up the assay, thaw ARF vial(s) in 37° C. water bath until small ice crystal remain and resuspend into assay media (DMEM containing 2% FBS, 100 U/ml Penicillin-Streptomycin). Count cells using default parameters on ViCell and dilute to 20,000 cells per ml in assay media. Add RSV GFP to cells at 24,000 pfu/ml (MOI=1.2). Mix by gentle inversion. 10 μl/well of 100% DMSO was dispensed to CellTiter-Glo (CTG) assay Max_E controls wells. Dispense cells at 50 μl/well using Bravo and 50 μl filtered tips into compound plates. Cover plates with MicroClime lids loaded with 7.5 ml of assay media to minimize evaporation. Incubate at 37 degrees C. and 5% CO2 for 96 hrs. Following incubation, distinct, GFP-expressing cells are counted using an Acumen imaging system with appropriate settings. A same-well CTG assay is performed by adding 10 μl/well reconstituted CellTiter-Glo reagent (Promega G7573) and reading plates on PerkinElmer Envision according to manufacturer's instructions. Raw data were loaded and analyzed in ActivityBase. Antiviral IC50 and cytotoxicity CC50 values were determined using a 4 parameter logistic fit based on the Levenberg-Marquardt algorithm. Model: 205-4 Parameter Logistic.
Calu-1 cells were purchased from ATCC (Cat #HTB-54) and are expanded in growth media (DMEM containing 10% FBS, 100 U/ml Penicillin-Streptomycin). To make ARF, remove and discard cell culture media, briefly rinse the cell layer with PBS to remove all traces of serum. Add 2.5 ml of TrypLE Express solution and incubate until cells dislodge, then add growth media and resuspend the cells by gentle pipetting. Count cells for concentration and determine viability using a ViCell. Centrifuge at RT, 300 g for 5 min to pellet cells. Gently aspirate supernatant, flick pellet to loosen cells. Resuspend cells in an appropriate volume of freezing medium (DMEM containing 10% DMSO, 10% FBS, 100 U/ml Penicillin-Streptomycin) to achieve 5×10^6/ml. Transfer 1 ml of cell suspension to freezing vials. Put vials to CoolCell cryopreservation container and place CoolCell container upright in a −80° C. freezer overnight before transferring vials to liquid nitrogen vapor for storage.
Take `Cn1nc(-c2cscn2)cc1C(=O)NCC(O)(c1cc2c(c(-c3ccc(F)cc3)n1)OCC2(C)C(N)=O)C(F)(F)F` (single isomer, unassigned) [Example 30-B, 7-(4-fluorophenyl)-3-methyl-5-(1,1,1-trifluoro-2-hydroxy-3-(1-methyl-3-(thiazol-4-yl)-1H-pyrazole-5-carboxamido)propan-2-yl)-2,3-dihydrofuro[2,3-c]pyridine-3-carboxamide]: the pEC50 is > 8.00.

As to `Cn1nc(-n2cccn2)cc1C(=O)NCC(O)(c1cc(C(C)(C)N)cc(-c2ccc(F)cc2)n1)C1CC1` (single isomer, unassigned) [Example 35-B, N-(2-(4-(2-aminopropan-2-yl)-6-(4-fluorophenyl)pyridin-2-yl)-2-cyclopropyl-2-hydroxyethyl)-1′-methyl-1′H-[1,3′-bipyrazole]-5′-carboxamide], the pEC50 is > 8.00.

With `Cn1nc(-n2cccn2)cc1C(=O)NCC(O)(c1cc(C(C)(C)N)cc(-c2ccc(F)cc2)n1)C(F)(F)F` (single isomer, unassigned) [Example 36-A, N-(2-(4-(2-aminopropan-2-yl)-6-(4-fluorophenyl)pyridin-2-yl)-3,3,3-trifluoro-2-hydroxypropyl)-1′-methyl-1′H-[1,3′-bipyrazole]-5′-carboxamide], the pEC50 is > 8.00.

Take `Cn1nc(-n2cccn2)cc1C(=O)NCC(C)(O)c1cc(C(C)(C)N)cc(-c2ccc(C(F)(F)F)cc2)n1` (single isomer, unassigned) [Example 37-B, N-(2-(4-(2-aminopropan-2-yl)-6-(4-(trifluoromethyl)phenyl)pyridin-2-yl)-2-hydroxypropyl)-1′-methyl-1′H-[1,3′-bipyrazole]-5′-carboxamide]: the negative-log EC50 (pEC50) was > 8.00.

Still in this experiment, the particulars now being: read-out: RSV EC50; Calu-1 cells, RSV-A2-GFP MOI=1.2, 96 hrs, GFP-expressing cells counted.
On to `Cn1nc(-n2cccn2)cc1C(=O)NCC(C)(O)c1cc2c(c(-c3ccc(F)cc3)n1)OCC2(C)C(N)=O` (single isomer, unassigned) [Example 29-A, 7-(4-fluorophenyl)-5-(2-hydroxy-1-(1′-methyl-1′H-[1,3′-bipyrazole]-5′-carboxamido)propan-2-yl)-3-methyl-2,3-dihydrofuro[2,3-c]pyridine-3-carboxamide], for which the pEC50 is 7.00 to 8.00.

As to `Cn1nc(-n2cccn2)cc1C(=O)NCC(C)(O)c1cc2c(c(-c3ccc(F)cc3)n1)OCC2(C)C(N)=O` (single isomer, unassigned) [Example 29-B, 7-(4-fluorophenyl)-5-(2-hydroxy-1-(1′-methyl-1′H-[1,3′-bipyrazole]-5′-carboxamido)propan-2-yl)-3-methyl-2,3-dihydrofuro[2,3-c]pyridine-3-carboxamide], the pEC50 was < 7.00.

As to `Cn1nc(-n2cccn2)cc1C(=O)NCC(C)(O)c1cc2c(c(-c3ccc(F)cc3)n1)OCC2(C)C(N)=O` (single isomer, unassigned) [Example 29-C, 7-(4-fluorophenyl)-5-(2-hydroxy-1-(1′-methyl-1′H-[1,3′-bipyrazole]-5′-carboxamido)propan-2-yl)-3-methyl-2,3-dihydrofuro[2,3-c]pyridine-3-carboxamide], the pEC50 is > 8.00.

With `Cn1nc(-n2cccn2)cc1C(=O)NCC(C)(O)c1cc2c(c(-c3ccc(F)cc3)n1)OCC2(C)C(N)=O` (single isomer, unassigned) [Example 29-D, 7-(4-fluorophenyl)-5-(2-hydroxy-1-(1′-methyl-1′H-[1,3′-bipyrazole]-5′-carboxamido)propan-2-yl)-3-methyl-2,3-dihydrofuro[2,3-c]pyridine-3-carboxamide], the pEC50 was 7.00 to 8.00.

On to `Cn1nc(-c2cscn2)cc1C(=O)NCC(C)(O)c1cc(C(C)(C)C(N)=O)cc(-c2ccc(F)cc2)n1` (single isomer, unassigned) [Example 31-A, N-(2-(4-(1-amino-2-methyl-1-oxopropan-2-yl)-6-(4-fluorophenyl)pyridin-2-yl)-2-hydroxypropyl)-1-methyl-3-(thiazol-4-yl)-1H-pyrazole-5-carboxamide], for which the pEC50 was < 7.00.

For the compound `Cn1nc(-c2cscn2)cc1C(=O)NCC(C)(O)c1cc(C(C)(C)C(N)=O)cc(-c2ccc(F)cc2)n1` (single isomer, unassigned) [Example 31-B, N-(2-(4-(1-amino-2-methyl-1-oxopropan-2-yl)-6-(4-fluorophenyl)pyridin-2-yl)-2-hydroxypropyl)-1-methyl-3-(thiazol-4-yl)-1H-pyrazole-5-carboxamide], the pEC50 is > 8.00.

On to `Cn1nc(-c2cscn2)cc1C(=O)NCC(C)(O)c1cc(C(C)(C)O)cc(-c2ccc(F)cc2)n1` (single isomer, unassigned) [Example 32-A, N-(2-(6-(4-fluorophenyl)-4-(2-hydroxypropan-2-yl)pyridin-2-yl)-2-hydroxypropyl)-1-methyl-3-(thiazol-4-yl)-1H-pyrazole-5-carboxamide], for which the pEC50 was < 7.00.

As for `Cn1nc(-c2cscn2)cc1C(=O)NCC(C)(O)c1cc(C(C)(C)O)cc(-c2ccc(F)cc2)n1` (single isomer, unassigned) [Example 32-B, N-(2-(6-(4-fluorophenyl)-4-(2-hydroxypropan-2-yl)pyridin-2-yl)-2-hydroxypropyl)-1-methyl-3-(thiazol-4-yl)-1H-pyrazole-5-carboxamide], the negative-log EC50 (pEC50) was > 8.00.

Turning to `CC(N)C(C)(C)c1cc(-c2ccc(F)cc2)nc(C(C)(O)CNC(=O)c2cc(-n3cccn3)nn2C)c1` (single isomer, unassigned) [Example 33-A, N-(2-(4-(3-amino-2-methylbutan-2-yl)-6-(4-fluorophenyl)pyridin-2-yl)-2-hydroxypropyl)-1′-methyl-1′H-[1,3′-bipyrazole]-5′-carboxamide], the pEC50 is < 7.00.

Take `CC(N)C(C)(C)c1cc(-c2ccc(F)cc2)nc(C(C)(O)CNC(=O)c2cc(-n3cccn3)nn2C)c1` (single isomer, unassigned) [Example 33-B, N-(2-(4-(3-amino-2-methylbutan-2-yl)-6-(4-fluorophenyl)pyridin-2-yl)-2-hydroxypropyl)-1′-methyl-1′H-[1,3′-bipyrazole]-5′-carboxamide]: the pEC50 was < 7.00.

Turning to `CC(N)C(C)(C)c1cc(-c2ccc(F)cc2)nc(C(C)(O)CNC(=O)c2cc(-n3cccn3)nn2C)c1` (single isomer, unassigned) [Example 33-C, N-(2-(4-(3-amino-2-methylbutan-2-yl)-6-(4-fluorophenyl)pyridin-2-yl)-2-hydroxypropyl)-1′-methyl-1′H-[1,3′-bipyrazole]-5′-carboxamide], the pEC50 is > 8.00.

In the case of `CC(N)C(C)(C)c1cc(-c2ccc(F)cc2)nc(C(C)(O)CNC(=O)c2cc(-n3cccn3)nn2C)c1` (single isomer, unassigned) [Example 33-D, N-(2-(4-(3-amino-2-methylbutan-2-yl)-6-(4-fluorophenyl)pyridin-2-yl)-2-hydroxypropyl)-1′-methyl-1′H-[1,3′-bipyrazole]-5′-carboxamide], the pEC50 was > 8.00.

Regarding `Cn1nc(-n2cccn2)cc1C(=O)NCC(O)c1cc(C(C)(C)N)cc(-c2ccc(F)cc2)n1` (single isomer, unassigned) [Example 34-A, N-(2-(4-(2-aminopropan-2-yl)-6-(4-fluorophenyl)pyridin-2-yl)-2-hydroxyethyl)-1′-methyl-1′H-[1,3′-bipyrazole]-5′-carboxamide], the pEC50 was > 8.00.

As for `Cn1nc(-n2cccn2)cc1C(=O)NCC(O)c1cc(C(C)(C)N)cc(-c2ccc(F)cc2)n1` (single isomer, unassigned) [Example 34-B, N-(2-(4-(2-aminopropan-2-yl)-6-(4-fluorophenyl)pyridin-2-yl)-2-hydroxyethyl)-1′-methyl-1′H-[1,3′-bipyrazole]-5′-carboxamide], the negative-log EC50 (pEC50) is < 7.00.

For the origin of these results see US20250066323A1, “INHIBITORS OF HUMAN RESPIRATORY SYNCYTIAL VIRUS AND METAPNEUMOVIRUS” (priority 2023, published 2025).
